Reference: US12077503B2, “Substituted cyclic amides and their use as herbicides” (FMC CORPORATION, priority 2015, dated 2024)

Legend:
Type in all cases: in vivo
corn (Zea mays) [1] = experiment: Test G Post-Emergence Protocol; settings: Zea mays, post-emergence, 312 h; for plant injury at 15.625 g/ha: 15.625 g ai/ha, evaluated after 13 days (100=total damage to plant; 0=no damage to plant), read-out: Corn damage rating; for plant injury at 62.5 g/ha: 62.5 g ai/ha, read-out: Corn damage rating (100=total damage to plant; 0=no damage to plant); for plant injury at 62.5 g/ha / plant injury at 250 g/ha: evaluated after 13 days; for plant injury at 250 g/ha: 250 g ai/ha, read-out: damage to plant, Corn (100=total damage to plant; 0=no damage to plant)
Summary of the method: (§1)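 Scores run 0 (no damage) to 100 (total damage) and were taken 13 days after spraying. Plants had been raised in pots for 8 days under glasshouse control (24/16 °C, 14 h photoperiod, 65% humidity) and then treated at 15.625, 62.5 or 250 g/ha.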

[2] = system: velvetleaf (Abutilon theophrasti); experiment: Test G Post-Emergence Protocol; settings: Abutilon theophrasti, post-emergence, 312 h; for pest or weed control at 15.625 g/ha: 15.625 g ai/ha, evaluated after 13 days (100=total damage to plant; 0=no damage to plant), read-out: Velvetleaf damage rating; for pest or weed control at 62.5 g/ha: 62.5 g ai/ha, read-out: Velvetleaf damage rating (100=total damage to plant; 0=no damage to plant); for pest or weed control at 62.5 g/ha / pest or weed control at 250 g/ha: evaluated after 13 days; for pest or weed control at 250 g/ha: 250 g ai/ha, read-out: damage to plant, Velvetleaf (100=total damage to plant; 0=no damage to plant)
Summary of the method: as §1

[3] = system: giant foxtail (Setaria faberi); experiment: Test G Post-Emergence Protocol; settings: Setaria faberi, post-emergence, 312 h; for pest or weed control at 15.625 g/ha: 15.625 g ai/ha, evaluated after 13 days (100=total damage to plant; 0=no damage to plant), read-out: Foxtail, Giant damage rating; for pest or weed control at 62.5 g/ha: 62.5 g ai/ha, read-out: Foxtail, Giant damage rating (100=total damage to plant; 0=no damage to plant); for pest or weed control at 62.5 g/ha / pest or weed control at 250 g/ha: evaluated after 13 days; for pest or weed control at 250 g/ha: 250 g ai/ha, read-out: damage to plant, Foxtail, Giant (100=total damage to plant; 0=no damage to plant)
Summary of the method: as §1

[4] = system: ivy-leaved morning glory (Ipomoea hederacea); experiment: Test G Post-Emergence Protocol; settings: Ipomoea, post-emergence, 312 h; for pest or weed control at 15.625 g/ha: 15.625 g ai/ha, evaluated after 13 days (100=total damage to plant; 0=no damage to plant), read-out: Morningglory, Ivy-leaved damage rating; for pest or weed control at 62.5 g/ha: 62.5 g ai/ha, read-out: Morningglory, Ivy-leaved damage rating (100=total damage to plant; 0=no damage to plant); for pest or weed control at 62.5 g/ha / pest or weed control at 250 g/ha: evaluated after 13 days; for pest or weed control at 250 g/ha: 250 g ai/ha, read-out: damage to plant, Morningglory, Ivy-leaved (100=total damage to plant; 0=no damage to plant)
Summary of the method: as §1

[5] = system: barnyardgrass (Echinochloa crus-galli); experiment: Test G Post-Emergence Protocol; settings: Echinochloa crus-galli, post-emergence, 312 h; for pest or weed control at 15.625 g/ha: 15.625 g ai/ha, evaluated after 13 days (100=total damage to plant; 0=no damage to plant), read-out: Barnyardgrass damage rating; for pest or weed control at 62.5 g/ha: 62.5 g ai/ha, read-out: Barnyardgrass damage rating (100=total damage to plant; 0=no damage to plant); for pest or weed control at 62.5 g/ha / pest or weed control at 250 g/ha: evaluated after 13 days; for pest or weed control at 250 g/ha: 250 g ai/ha, read-out: damage to plant, Barnyardgrass (100=total damage to plant; 0=no damage to plant)
Summary of the method: as §1

[6] = system: redroot pigweed (Amaranthus retroflexus); experiment: Test G Post-Emergence Protocol; settings: Amaranthus retroflexus, post-emergence, 312 h; for pest or weed control at 15.625 g/ha: 15.625 g ai/ha, evaluated after 13 days (100=total damage to plant; 0=no damage to plant), read-out: Pigweed, Redroot damage rating; for pest or weed control at 62.5 g/ha: 62.5 g ai/ha, read-out: Pigweed, Redroot damage rating (100=total damage to plant; 0=no damage to plant); for pest or weed control at 62.5 g/ha / pest or weed control at 250 g/ha: evaluated after 13 days; for pest or weed control at 250 g/ha: 250 g ai/ha, read-out: damage to plant, Pigweed, Redroot (100=total damage to plant; 0=no damage to plant)
Summary of the method: as §1

corn (Zea mays) [7] = experiment: Test G Pre-Emergence Protocol; settings: Zea mays, pre-emergence, 312 h, evaluated after 13 days; for plant injury at 15.625 g/ha: 15.625 g ai/ha; for plant injury at 15.625 g/ha / plant injury at 250 g/ha: read-out: Corn damage rating (100=total damage to plant; 0=no damage to plant); for plant injury at 62.5 g/ha: 62.5 g ai/ha, 100=total damage to plant, 0=no damage to plant, read-out: plant damage rating, Corn; for plant injury at 250 g/ha: 250 g ai/ha
Summary of the method: (§2)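 Scores are visual damage ratings from 0 (no damage) to 100 (total plant kill), taken 13 days after treatment. Compound was sprayed one day post-sowing at 15.625, 62.5 or 250 g/ha in 50:50 acetone/water with 0.5% Tween 20.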

[8] = system: velvetleaf (Abutilon theophrasti); experiment: Test G Pre-Emergence Protocol; settings: Abutilon theophrasti, pre-emergence, 312 h, evaluated after 13 days; for pest or weed control at 15.625 g/ha: 15.625 g ai/ha; for pest or weed control at 15.625 g/ha / pest or weed control at 250 g/ha: read-out: Velvetleaf damage rating (100=total damage to plant; 0=no damage to plant); for pest or weed control at 62.5 g/ha: 62.5 g ai/ha, 100=total damage to plant, 0=no damage to plant, read-out: plant damage rating, Velvetleaf; for pest or weed control at 250 g/ha: 250 g ai/ha
Summary of the method: as §2

[9] = system: giant foxtail (Setaria faberi); experiment: Test G Pre-Emergence Protocol; settings: Setaria faberi, pre-emergence, 312 h, evaluated after 13 days; for pest or weed control at 15.625 g/ha: 15.625 g ai/ha; for pest or weed control at 15.625 g/ha / pest or weed control at 250 g/ha: read-out: Foxtail, Giant damage rating (100=total damage to plant; 0=no damage to plant); for pest or weed control at 62.5 g/ha: 62.5 g ai/ha, 100=total damage to plant, 0=no damage to plant, read-out: plant damage rating, Foxtail, Giant; for pest or weed control at 250 g/ha: 250 g ai/ha
Summary of the method: as §2

[10] = system: ivy-leaved morning glory (Ipomoea hederacea); experiment: Test G Pre-Emergence Protocol; settings: Ipomoea, pre-emergence, 312 h, evaluated after 13 days; for pest or weed control at 15.625 g/ha: 15.625 g ai/ha, read-out: Morning-glory, Ivy-leaved damage rating (100=total damage to plant; 0=no damage to plant); for pest or weed control at 62.5 g/ha: 62.5 g ai/ha, 100=total damage to plant, 0=no damage to plant, read-out: plant damage rating, Morningglory, Ivy-leaved; for pest or weed control at 250 g/ha: 250 g ai/ha, read-out: Morningglory, Ivy-leaved damage rating (100=total damage to plant; 0=no damage to plant)
Summary of the method: as §2

[11] = system: barnyardgrass (Echinochloa crus-galli); experiment: Test G Pre-Emergence Protocol; settings: Echinochloa crus-galli, pre-emergence, 312 h, evaluated after 13 days; for pest or weed control at 15.625 g/ha: 15.625 g ai/ha, read-out: Barnyard grass damage rating (100=total damage to plant; 0=no damage to plant); for pest or weed control at 62.5 g/ha: 62.5 g ai/ha, 100=total damage to plant, 0=no damage to plant, read-out: plant damage rating, Barnyardgrass; for pest or weed control at 250 g/ha: 250 g ai/ha, read-out: Barnyardgrass damage rating (100=total damage to plant; 0=no damage to plant)
Summary of the method: as §2

[12] = system: redroot pigweed (Amaranthus retroflexus); experiment: Test G Pre-Emergence Protocol; settings: Amaranthus retroflexus, pre-emergence, 312 h, evaluated after 13 days; for pest or weed control at 15.625 g/ha: 15.625 g ai/ha; for pest or weed control at 15.625 g/ha / pest or weed control at 250 g/ha: read-out: Pigweed, Redroot damage rating (100=total damage to plant; 0=no damage to plant); for pest or weed control at 62.5 g/ha: 62.5 g ai/ha, 100=total damage to plant, 0=no damage to plant, read-out: plant damage rating, Pigweed, Redroot; for pest or weed control at 250 g/ha: 250 g ai/ha
Summary of the method: as §2

`Cc1cccnc1NC(=O)C1C(=O)N(C)CC1c1ccc(C(F)(F)F)cc1` (stereo not drawn) [Compound 1437] gave a plant injury at 15.625 g/ha (corn (Zea mays) [1]) of 0%, a plant injury at 62.5 g/ha (corn (Zea mays) [1]) of 0% and a plant injury at 250 g/ha (corn (Zea mays) [1]) of 0%. The pest or weed control at 15.625 g/ha [2] was 0%, the pest or weed control at 62.5 g/ha [2] was 0% and the pest or weed control at 250 g/ha [2] was 0%. The pest or weed control at 15.625 g/ha [3] was 0%, the pest or weed control at 62.5 g/ha [3] was 0% and the pest or weed control at 250 g/ha [3] was 0%. The pest or weed control at 15.625 g/ha [4] was 0%, the pest or weed control at 62.5 g/ha [4] was 0% and the pest or weed control at 250 g/ha [4] was 0%. It also gave a pest or weed control at 15.625 g/ha [5] of 0%, a pest or weed control at 62.5 g/ha [5] of 0% and a pest or weed control at 250 g/ha [5] of 0%. For the same compound, the pest or weed control at 15.625 g/ha [6] was 0%, the pest or weed control at 62.5 g/ha [6] was 0% and the pest or weed control at 250 g/ha [6] was 0%. It also gave a plant injury at 15.625 g/ha (corn (Zea mays) [7]) of 0%, a plant injury at 62.5 g/ha (corn (Zea mays) [7]) of 0% and a plant injury at 250 g/ha (corn (Zea mays) [7]) of 0%. It also gave a pest or weed control at 15.625 g/ha [8] of 0%, a pest or weed control at 62.5 g/ha [8] of 0% and a pest or weed control at 250 g/ha [8] of 0%. The pest or weed control at 15.625 g/ha [9] was 0%, the pest or weed control at 62.5 g/ha [9] was 0% and the pest or weed control at 250 g/ha [9] was 0%. For the same compound, the pest or weed control at 15.625 g/ha [10] was 0%, the pest or weed control at 62.5 g/ha [10] was 0% and the pest or weed control at 250 g/ha [10] was 0%. The pest or weed control at 15.625 g/ha [11] was 0%, the pest or weed control at 62.5 g/ha [11] was 0% and the pest or weed control at 250 g/ha [11] was 0%. For the same compound, the pest or weed control at 15.625 g/ha [12] was 0%, the pest or weed control at 62.5 g/ha [12] was 0% and the pest or weed control at 250 g/ha [12] was 0%.
`CN1C[C@@H](c2ccc(C(F)(F)F)cc2)[C@H](C(=O)Nc2cccc(F)n2)C1=O` [Compound 1489] was tested, and the plant injury at 15.625 g/ha (corn (Zea mays) [1]) was 10%, the plant injury at 62.5 g/ha (corn (Zea mays) [1]) was 10% and the plant injury at 250 g/ha (corn (Zea mays) [1]) was 40%. For the same compound, the pest or weed control at 15.625 g/ha [2] was 0%, the pest or weed control at 62.5 g/ha [2] was 0% and the pest or weed control at 250 g/ha [2] was 0%. For the same compound, the pest or weed control at 15.625 g/ha [3] was 0%, the pest or weed control at 62.5 g/ha [3] was 0% and the pest or weed control at 250 g/ha [3] was 40%. It also gave a pest or weed control at 15.625 g/ha [4] of 0%, a pest or weed control at 62.5 g/ha [4] of 0% and a pest or weed control at 250 g/ha [4] of 0%. It also gave a pest or weed control at 15.625 g/ha [5] of 0%, a pest or weed control at 62.5 g/ha [5] of 0% and a pest or weed control at 250 g/ha [5] of 30%. For the same compound, the pest or weed control at 15.625 g/ha [6] was 0%, the pest or weed control at 62.5 g/ha [6] was 0% and the pest or weed control at 250 g/ha [6] was 10%. The plant injury at 15.625 g/ha (corn (Zea mays) [7]) was 0%, the plant injury at 62.5 g/ha (corn (Zea mays) [7]) was 0% and the plant injury at 250 g/ha (corn (Zea mays) [7]) was 0%. It also gave a pest or weed control at 15.625 g/ha [8] of 0%, a pest or weed control at 62.5 g/ha [8] of 0% and a pest or weed control at 250 g/ha [8] of 0%. It also gave a pest or weed control at 15.625 g/ha [9] of 0%, a pest or weed control at 62.5 g/ha [9] of 0% and a pest or weed control at 250 g/ha [9] of 0%. For the same compound, the pest or weed control at 15.625 g/ha [10] was 0%, the pest or weed control at 62.5 g/ha [10] was 0% and the pest or weed control at 250 g/ha [10] was 0%. It also gave a pest or weed control at 15.625 g/ha [11] of 0%, a pest or weed control at 62.5 g/ha [11] of 0% and a pest or weed control at 250 g/ha [11] of 0%. For the same compound, the pest or weed control at 15.625 g/ha [12] was 0%, the pest or weed control at 62.5 g/ha [12] was 0% and the pest or weed control at 250 g/ha [12] was 100%.
